The supplement of paper PMC10307832

Tests used:
Experiment in all cases: relative viability (nuclei count vs DMSO), 5 days (fraction); higher = more cells survive
[1] = compound: Cc1cnc(Nc2ccc(OCCN3CCCC3)cc2)nc1Nc1cccc(S(=O)(=O)NC(C)(C)C)c1 [Fedratinib] + CC(C)C[C@H](NC(=O)[C@H](Cc1ccccc1)NC(=O)c1cnccn1)B(O)O [Bortezomib] (partner 0.002 µM)
How it was run: (§1)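 Lung cancer cell lines were pin-tool dosed in 1536-well plates on the day after seeding, with either a lone drug or a fixed anchor-drug dose plus five library-drug doses (not always all listed) in √10 steps. Nuclei were counted on 4× images after 5 days. Relative viability is the ratio of treated-well to vehicle-well nuclei counts, with each value a median of duplicate plates.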

[2] = compound: Cc1cnc(Nc2ccc(OCCN3CCCC3)cc2)nc1Nc1cccc(S(=O)(=O)NC(C)(C)C)c1 [Fedratinib] + N=C(N)NC(=N)NCCc1ccccc1 [Phenformin] (partner 250 µM)
How it was run: as §1

[3] = compound: Cc1cnc(Nc2ccc(OCCN3CCCC3)cc2)nc1Nc1cccc(S(=O)(=O)NC(C)(C)C)c1 [Fedratinib] + COc1cc2c(Oc3ccc(NC(=O)C4(C(=O)Nc5ccc(F)cc5)CC4)cc3F)ccnc2cc1OCCCN1CCOCC1 [Foretinib] (partner 0.25 µM)
How it was run: as §1

[4] = compound: COC1=CC=C(C=C1)COC2=C(C=C(C=C2)CC3=CN=C(N=C3N)N)OC [GW-2580] + C[C@@H](Oc1cc(-c2cnn(C3CCNCC3)c2)cnc1N)c1c(Cl)ccc(F)c1Cl [Crizotinib] (partner 1 µM)
How it was run: as §1

[5] = compound: COC1=CC=C(C=C1)COC2=C(C=C(C=C2)CC3=CN=C(N=C3N)N)OC [GW-2580] + C[C@]1(O)C[C@@H](c2nc(-c3ccc4ccc(-c5ccccc5)nc4c3)c3c(N)nccn32)C1 [Linsitinib] (partner 1 µM)
How it was run: as §1

[6] = compound: Cc1cnc(Nc2ccc(OCCN3CCCC3)cc2)nc1Nc1cccc(S(=O)(=O)NC(C)(C)C)c1 [Fedratinib] + COc1cccc2cc(-c3nc([C@H]4CC[C@H](C(=O)O)CC4)n4ncnc(N)c34)[nH]c12 [OSI-027] (partner 0.5 µM)
How it was run: as §1

UMC-11
relative viability ([1]; first compound 0.1 µM): 0.603
relative viability ([1]; first compound 0.3162 µM): 0.758
relative viability ([1]; first compound 1 µM): 0.396
relative viability ([2]; first compound 0.1 µM): 0.338
relative viability ([2]; first compound 0.3162 µM): 0.272
relative viability ([2]; first compound 1 µM): 0.359
relative viability ([3]; first compound 0.1 µM): 1.1
relative viability ([3]; first compound 0.3162 µM): 0.958
relative viability ([3]; first compound 1 µM): 0.706
relative viability ([4]; first compound 0.08 µM): 0.599
relative viability ([4]; first compound 0.8 µM): 0.614
relative viability ([4]; first compound 2.53 µM): 0.585
relative viability ([4]; first compound 8 µM): 0.601
relative viability ([5]; first compound 0.08 µM): 1.02
relative viability ([5]; first compound 0.8 µM): 1.15
relative viability ([5]; first compound 2.53 µM): 0.998
relative viability ([5]; first compound 8 µM): 1.02
relative viability ([6]; first compound 0.1 µM): 0.473
relative viability ([6]; first compound 0.3162 µM): 0.452
relative viability ([6]; first compound 1 µM): 0.373
